Results as given in patent US20260262643A1, “HERBICIDAL BENZOXAZINES” (FMC CORPORATION, priority 2022, published 2026).

How the values were obtained:
barnyardgrass [1] = experiment: Test C preemergence; type: in vivo, Echinochloa crusgalli; details: for Barnyardgrass plant response rating: preemergence; for Plant response rating, Barnyardgrass: Preemergence
In short: (§1)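 Soil-applied (pre) and foliar (post, 1–2 leaf, 2–10 cm) sprays; surfactant-containing non-phytotoxic solvent vehicle; loam/sand substrate. Readout: visual % control at 10 d, greenhouse, versus untreated.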

blackgrass [2] = experiment: Test C preemergence; type: in vivo, Alopecurus myosuroides; details: for Blackgrass plant response rating: preemergence; for Plant response rating, Blackgrass: Preemergence
In short: as §1

corn [3] = experiment: Test C preemergence; type: in vivo, Zea mays; details: for Corn plant response rating: preemergence; for Plant response rating, Corn: Preemergence
In short: as §1

green foxtail [4] = experiment: Test C preemergence; type: in vivo, Setaria viridis; details: for Foxtail, Green plant response rating: preemergence; for Plant response rating, Foxtail, Green: Preemergence
In short: as §1

kochia [5] = experiment: Test C preemergence; type: in vivo, Bassia scoparia; details: for Kochia plant response rating: preemergence; for Plant response rating, Kochia: Preemergence
In short: as §1

oat, wild [6] = experiment: Test C preemergence; type: in vivo, Avena fatua; details: for Oat, Wild plant response rating: preemergence; for Plant response rating, Oat, Wild: Preemergence
In short: as §1

pigweed, palmer [7] = experiment: Test C preemergence; type: in vivo, Amaranthus palmeri; details: for Pigweed, Palmer plant response rating: preemergence; for Plant response rating, Pigweed, Palmer: Preemergence
In short: as §1

ragweed [8] = experiment: Test C preemergence; type: in vivo, Ambrosia artemisiifolia; details: for Ragweed plant response rating: preemergence; for Plant response rating, Ragweed: Preemergence
In short: as §1

ryegrass, Italian [9] = experiment: Test C preemergence; type: in vivo, Lolium multiflorum; details: for Ryegrass, Italian plant response rating: preemergence; for Plant response rating, Ryegrass, Italian: Preemergence
In short: as §1

soybean [10] = experiment: Test C preemergence; type: in vivo, Glycine max; details: for Soybean plant response rating: preemergence; for Plant response rating, Soybean: Preemergence
In short: as §1

wheat [11] = experiment: Test C preemergence; type: in vivo, Triticum aestivum; details: for Wheat plant response rating: preemergence; for Plant response rating, Wheat: Preemergence
In short: as §1

barnyardgrass [12] = experiment: Test C postemergence; type: in vivo, Echinochloa crusgalli; details: 10 days
In short: as §1

blackgrass [13] = experiment: Test C postemergence; type: in vivo, Alopecurus myosuroides; details: 10 days
In short: as §1

corn [14] = experiment: Test C postemergence; type: in vivo, Zea mays; details: 10 days
In short: as §1

green foxtail [15] = experiment: Test C postemergence; type: in vivo, Setaria viridis; details: 10 days
In short: as §1

kochia [16] = experiment: Test C postemergence; type: in vivo, Bassia scoparia; details: 10 days
In short: as §1

oat, wild [17] = experiment: Test C postemergence; type: in vivo, Avena fatua; details: 10 days
In short: as §1

pigweed, palmer [18] = experiment: Test C postemergence; type: in vivo, Amaranthus palmeri; details: 10 days
In short: as §1

ragweed [19] = experiment: Test C postemergence; type: in vivo, Ambrosia artemisiifolia; details: 10 days
In short: as §1

ryegrass, Italian [20] = experiment: Test C postemergence; type: in vivo, Lolium multiflorum; details: 10 days
In short: as §1

soybean [21] = experiment: Test C postemergence; type: in vivo, Glycine max; details: 10 days
In short: as §1

wheat [22] = experiment: Test C postemergence; type: in vivo, Triticum aestivum; details: 10 days
In short: as §1

galium = experiment: Test C postemergence; type: in vivo, Galium aparine; details: 10 days
In short: as §1

horseweed = experiment: Test C postemergence; type: in vivo, Erigeron canadensis; details: 10 days
In short: as §1

barnyardgrass [23] = experiment: Test D flooded paddy test; type: in vivo, Echinochloa crus-galli; details: 250 g ai/ha, applied to paddy water, visual rating after 13 to 14 days, scale 0 to 100 (0 no effect, 100 complete control)
In short: (§2)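 Plants at the 2-leaf stage were grown in pots flooded to 3 cm, and compound was applied directly into the paddy water, with depth kept throughout. After 13–14 days in a greenhouse, injury was rated visually against untreated controls on a 0–100 scale (100 = complete control); a dash means not tested.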

ducksalad = experiment: Test D flooded paddy test; type: in vivo, Heteranthera limosa; details: 250 g ai/ha, applied to paddy water, visual rating after 13 to 14 days, scale 0 to 100 (0 no effect, 100 complete control)
In short: as §2

rice = experiment: Test D flooded paddy test; type: in vivo, Oryza sativa; details: 250 g ai/ha, applied to paddy water, visual rating after 13 to 14 days, scale 0 to 100 (0 no effect, 100 complete control)
In short: as §2

sedge, umbrella = experiment: Test D flooded paddy test; type: in vivo, Cyperus difformis; details: 250 g ai/ha, applied to paddy water, visual rating after 13 to 14 days, scale 0 to 100 (0 no effect, 100 complete control)
In short: as §2

[24] = 500 g ai/ha, 0 to 100 scale (0 no effect, 100 complete control)
[25] = 125 g ai/ha, 0 to 100 scale, 0 no effect, 100 complete control
[26] = 500 g ai/ha, postemergence, 0 to 100 scale (0 no effect, 100 complete control)
[27] = Postemergence, 125 g ai/ha, 0 to 100 scale (0 no effect, 100 complete control)
[28] = 500 g ai/ha, visual rating after 10 days, 0 to 100 scale (0 no effect, 100 complete control)
[29] = Test C, 125 g ai/ha, 0 to 100 scale (0 no effect, 100 complete control)
[30] = 125 g ai/ha, postemergence, 0 to 100 scale, 0 no effect, 100 complete control
[31] = Postemergence, 500 g ai/ha, visual 0 to 100 scale (0 no effect, 100 complete control)

## CCOC[C@H]1CN(C(=O)c2cc(-n3cnc(C(C)(C)C)n3)ccc2C)c2cccc(Cl)c2O1 [Compound 413]
Barnyardgrass [1]; [24]
  Barnyardgrass plant response rating: 90
Barnyardgrass [1]; [25]
  Plant response rating, Barnyardgrass: 50
Blackgrass [2]; [24]
  Blackgrass plant response rating: 60
Blackgrass [2]; [25]
  Plant response rating, Blackgrass: 30
Corn [3]; [24]
  Corn plant response rating: 10
Corn [3]; [25]
  Plant response rating, Corn: 0
Green foxtail [4]; [24]
  Foxtail, Green plant response rating: 100
Green foxtail [4]; [25]
  Plant response rating, Foxtail, Green: 80
Kochia [5]; [24]
  Kochia plant response rating: 80
Kochia [5]; [25]
  Plant response rating, Kochia: 10
oat, wild [6]; [24]
  Oat, Wild plant response rating: 0
oat, wild [6]; [25]
  Plant response rating, Oat, Wild: 0
pigweed, palmer [7]; [24]
  Pigweed, Palmer plant response rating: 100
pigweed, palmer [7]; [25]
  Plant response rating, Pigweed, Palmer: 90
Ragweed [8]; [24]
  Ragweed plant response rating: 70
Ragweed [8]; [25]
  Plant response rating, Ragweed: 60
ryegrass, Italian [9]; [24]
  Ryegrass, Italian plant response rating: 100
ryegrass, Italian [9]; [25]
  Plant response rating, Ryegrass, Italian: 80
Soybean [10]; [24]
  Soybean plant response rating: 100
Soybean [10]; [25]
  Plant response rating, Soybean: 70
Wheat [11]; [24]
  Wheat plant response rating: 0
Wheat [11]; [25]
  Plant response rating, Wheat: 0
Barnyardgrass [12]; [26]
  Plant response rating, Barnyardgrass: 40
Barnyardgrass [12]; [27]
  Plant response rating, Barnyardgrass: 20
Blackgrass [13]; [26]
  Plant response rating, Blackgrass: 20
Blackgrass [13]; [27]
  Plant response rating, Blackgrass: 20
Corn [14]; [26]
  Plant response rating, Corn: 20
Corn [14]; [27]
  Plant response rating, Corn: 10
Green foxtail [15]; [26]
  Plant response rating, Foxtail, Green: 60
Green foxtail [15]; [27]
  Plant response rating, Foxtail, Green: 10
Kochia [16]; [26]
  Plant response rating, Kochia: 90
Kochia [16]; [27]
  Plant response rating, Kochia: 90
oat, wild [17]; [26]
  Plant response rating, Oat, Wild: 10
oat, wild [17]; [27]
  Plant response rating, Oat, Wild: 0
pigweed, palmer [18]; [26]
  Plant response rating, Pigweed, Palmer: 100
pigweed, palmer [18]; [27]
  Plant response rating, Pigweed, Palmer: 100
Ragweed [19]; [27]
  Plant response rating, Ragweed: 70
ryegrass, Italian [20]; [27]
  Plant response rating, Ryegrass, Italian: 40
Soybean [21]; [27]
  Plant response rating, Soybean: 100
Wheat [22]; [27]
  Plant response rating, Wheat: 10
galium; [26]
  Plant response rating, Galium: 100
galium; [27]
  Plant response rating, Galium: 90
horseweed; [26]
  Plant response rating, Horseweed: 60
horseweed; [27]
  Plant response rating, Horseweed: 10
Barnyardgrass [23]
  Plant response rating, Barnyardgrass (Flood): 35
ducksalad
  Plant response rating, Ducksalad (Flood): 15
rice
  Plant response rating, Rice (Flood): 10
sedge, umbrella
  Plant response rating, Sedge, Umbrella (Flood): 45

## CCn1cnc(-c2cccc(C(=O)N3C[C@H](C)Oc4c(Cl)cccc43)c2)n1 [Compound 173]
Barnyardgrass [1]; [28]
  Plant response rating, Barnyardgrass: 0
Barnyardgrass [1]; [29]
  Barnyardgrass plant response rating: 0
Blackgrass [2]; [28]
  Plant response rating, Blackgrass: 0
Blackgrass [2]; [29]
  Blackgrass plant response rating: 0
Corn [3]; [28]
  Plant response rating, Corn: 0
Corn [3]; [29]
  Corn plant response rating: 0
Green foxtail [4]; [28]
  Plant response rating, Foxtail, Green: 0
Green foxtail [4]; [29]
  Foxtail, Green plant response rating: 0
Kochia [5]; [28]
  Plant response rating, Kochia: 0
Kochia [5]; [29]
  Kochia plant response rating: 0
oat, wild [6]; [28]
  Plant response rating, Oat, Wild: 0
oat, wild [6]; [29]
  Oat, Wild plant response rating: 0
pigweed, palmer [7]; [28]
  Plant response rating, Pigweed, Palmer: 0
pigweed, palmer [7]; [29]
  Pigweed, Palmer plant response rating: 0
Ragweed [8]; [28]
  Plant response rating, Ragweed: 60
Ragweed [8]; [29]
  Ragweed plant response rating: 30
ryegrass, Italian [9]; [28]
  Plant response rating, Ryegrass, Italian: 50
ryegrass, Italian [9]; [29]
  Ryegrass, Italian plant response rating: 20
Soybean [10]; [28]
  Plant response rating, Soybean: 0
Soybean [10]; [29]
  Soybean plant response rating: 0
Wheat [11]; [28]
  Plant response rating, Wheat: 0
Wheat [11]; [29]
  Wheat plant response rating: 0
Barnyardgrass [12]; [30]
  Plant response rating, Barnyardgrass: 10
Barnyardgrass [12]; [31]
  Plant response rating, Barnyardgrass: 10
Blackgrass [13]; [30]
  Plant response rating, Blackgrass: 0
Blackgrass [13]; [31]
  Plant response rating, Blackgrass: 0
Corn [14]; [30]
  Plant response rating, Corn: 0
Corn [14]; [31]
  Plant response rating, Corn: 0
Green foxtail [15]; [30]
  Plant response rating, Foxtail, Green: 0
Green foxtail [15]; [31]
  Plant response rating, Foxtail, Green: 40
Kochia [16]; [30]
  Plant response rating, Kochia: 0
Kochia [16]; [31]
  Plant response rating, Kochia: 30
oat, wild [17]; [30]
  Plant response rating, Oat, Wild: 0
oat, wild [17]; [31]
  Plant response rating, Oat, Wild: 0
pigweed, palmer [18]; [30]
  Plant response rating, Pigweed, Palmer: 0
pigweed, palmer [18]; [31]
  Plant response rating, Pigweed, Palmer: 20
Ragweed [19]; [30]
  Plant response rating, Ragweed: 0
Ragweed [19]; [31]
  Plant response rating, Ragweed: 30
ryegrass, Italian [20]; [30]
  Plant response rating, Ryegrass, Italian: 0
ryegrass, Italian [20]; [31]
  Plant response rating, Ryegrass, Italian: 0
Soybean [21]; [30]
  Plant response rating, Soybean: 0
Soybean [21]; [31]
  Plant response rating, Soybean: 30
Wheat [22]; [30]
  Plant response rating, Wheat: 0
Wheat [22]; [31]
  Plant response rating, Wheat: 0
galium; [30]
  Plant response rating, Galium: 20
galium; [31]
  Plant response rating, Galium: 50
horseweed; [30]
  Plant response rating, Horseweed: 10
horseweed; [31]
  Plant response rating, Horseweed: 10
Barnyardgrass [23]
  Plant response rating, Barnyardgrass (Flood): 0
ducksalad
  Plant response rating, Ducksalad (Flood): 0
rice
  Plant response rating, Rice (Flood): 0
sedge, umbrella
  Plant response rating, Sedge, Umbrella (Flood): 0
